Results: patent US9132134B2, “Methods for treating GI tract disorders” (Neurogastrx, Inc., priority 2012, dated 2015)
pIC50: −log10 of the molar value. Where “and” joins values, the source holds several entries; their conditions need not be identical. Equal entries are not always repeated.

Legend:
D3 = D3 (Homo sapiens (Human), UniProt P35462); assay: Radioligand binding affinity, D3
dopamine D2 receptor = dopamine D2 receptor (Homo sapiens (Human), UniProt P14416); assay: Radioligand binding assay, [3H]spiperone, membranes of D2 receptor expressing cells; conditions: [3H]spiperone competition; read-out: Radioligand Binding Affinity (Ki, nM) D2
Chain of dopamine D2 receptor (P14416 whole entry, species assumed): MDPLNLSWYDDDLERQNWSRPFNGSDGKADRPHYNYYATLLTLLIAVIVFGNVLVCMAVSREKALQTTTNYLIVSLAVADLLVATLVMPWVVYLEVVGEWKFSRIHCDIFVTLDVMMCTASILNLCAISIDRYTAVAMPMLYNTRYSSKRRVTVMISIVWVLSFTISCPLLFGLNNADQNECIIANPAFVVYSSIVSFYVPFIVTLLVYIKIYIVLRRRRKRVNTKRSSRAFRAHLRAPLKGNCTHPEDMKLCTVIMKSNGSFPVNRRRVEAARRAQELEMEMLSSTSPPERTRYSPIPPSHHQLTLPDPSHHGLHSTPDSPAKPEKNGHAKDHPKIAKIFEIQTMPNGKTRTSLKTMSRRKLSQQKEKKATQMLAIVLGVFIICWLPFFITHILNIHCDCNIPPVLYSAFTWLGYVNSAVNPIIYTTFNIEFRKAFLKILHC

[1] = tested on: canine cardiac action potentials; assay: Canine cardiac action potentials by electrocardiography and telemetry; type: in vivo; conditions: dogs; for QTc intervals as compared to vehicle-administered animals: oral gavage
Text: Surgical Implantation of the Telemetry Device and ECG Leads. Anesthesia is introduced to dogs. Balanced gaseous anesthesia is used throughout the surgical procedure. Once anesthetized, animals are shaved and surgically scrubbed, encompassing surgical sites of the right inguinal area, chest and right lateral abdomen. Throughout the surgical procedure, animals are monitored for continuous assessment of vital signs. An incision is made along the right medial thigh and the femoral artery exposed by blunt dissection. Another incision is made in the lateral lumbar area cranial to the iliac crest for a tunneling needle to be passed subcutaneously from the incision on the medial thigh to the lumbar incision. A blood pressure catheter is passed through the needle from the lumbar incision and the needle removed. The femoral artery is ligated distally and incised to insert a catheter that is advanced until the tip resided in the femoral artery/abdominal aorta. The catheter is then secured by ligation. The incision in the lumbar area is enlarged and a subcutaneous pocket created in the left dorsal lumbar area to hold the transmitter body. The transmitter (e.g., Data Sciences International, St Paul, Minn., USA) is inserted into the subcutaneous pocket and secured body. Electrocardiography (ECG) leads are positioned. The incision is closed. Postoperative recovery lasts, e.g., about 2 weeks during which supplemental analgesics/antibiotics are administered as needed. Once the postoperative recovery period is complete, the animal is examined for study acceptability by the staff veterinarian and the implanted transmitter signal verified.
Study Design. […] ECGs, heart rate and arterial blood pressure data are recorded 1 hour prior to and then continuously for at least 6 hours following compound and/or vehicle administration. A blood sample for determination of compound plasma concentrations is collected from all subjects at approximately 6 h post-dose.
ECG Analysis. An ECG waveform morphology assessment, for the entire monitoring period, is completed for each dog by, e.g., a safety pharmacologist or veterinarian cardiologist. Standard ECG intervals (PR, RR, QRS and QT) are automatically measured by the data acquisition system and reported as, e.g., 10 min averages. The signals are collected with Data Sciences International Systems hardware. PR and QT manual overreads are conducted as appropriate. The manual measurements are completed from 50 mm s^−1 tracings at 30 min intervals. A mean of the three waveforms per time point are reported. QT intervals are corrected for heart rate (QTc) values by, e.g., using the formula by Funck-Bretano and Jaillon (1993).
Statistical Analysis. […] Dose-level averages (and accompanying standard deviation (s.d.) of these baseline-adjusted 10 min averages are calculated across study animals. ANOVA (e.g., repeated measures ANOVA) are applied to these baseline-adjusted averages. Pairwise t-tests are applied within the ANOVA to identify the presence of significant differences of the dose levels relative to vehicle. These t-tests are performed at a 0.05/2=0.025 significance level, so that the overall error rate across the comparisons in a given interval are not higher than 0.05. ECG interval data (reported at 30 min intervals) are analyzed using, e.g., repeated-measures ANOVA techniques similar to the systemic blood pressure and heart rate data described above.

5HT3 = 5HT3 (Homo sapiens (Human), UniProt P46098); assay: Radioligand binding affinity, 5HT3
Chain of 5HT3 (P46098 24-478, species assumed): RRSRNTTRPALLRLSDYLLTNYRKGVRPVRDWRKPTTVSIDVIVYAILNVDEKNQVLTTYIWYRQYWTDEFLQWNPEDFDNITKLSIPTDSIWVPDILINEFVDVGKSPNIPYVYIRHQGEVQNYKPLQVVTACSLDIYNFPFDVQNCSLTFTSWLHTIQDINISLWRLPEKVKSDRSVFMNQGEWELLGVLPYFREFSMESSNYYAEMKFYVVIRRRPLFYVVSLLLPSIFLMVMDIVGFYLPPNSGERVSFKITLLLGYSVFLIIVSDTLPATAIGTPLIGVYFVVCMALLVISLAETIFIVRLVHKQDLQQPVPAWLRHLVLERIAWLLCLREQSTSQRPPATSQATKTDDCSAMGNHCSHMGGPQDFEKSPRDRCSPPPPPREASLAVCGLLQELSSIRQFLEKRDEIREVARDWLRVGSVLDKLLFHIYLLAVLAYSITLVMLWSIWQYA

5HT2 = assay: Radioligand binding affinity, 5HT2
hERG channel = hERG channel (Homo sapiens (Human), UniProt Q12809); assay: hERG voltage clamp assay in hERG-expressing cultured cells; type: cell-based; conditions: for inhibition at 0.1 µM / inhibition at 1 µM / inhibition at 10 µM: human, hERG-expressing cultured cells, read-out: hERG Activity (% Inhibition of Tail Current); for inhibition at 0.1 µM: 100 nM; for pIC50: read-out: concentration necessary to inhibit 50% of the tail currents mediated by hERG channels
Chain of hERG channel (Q12809 whole entry): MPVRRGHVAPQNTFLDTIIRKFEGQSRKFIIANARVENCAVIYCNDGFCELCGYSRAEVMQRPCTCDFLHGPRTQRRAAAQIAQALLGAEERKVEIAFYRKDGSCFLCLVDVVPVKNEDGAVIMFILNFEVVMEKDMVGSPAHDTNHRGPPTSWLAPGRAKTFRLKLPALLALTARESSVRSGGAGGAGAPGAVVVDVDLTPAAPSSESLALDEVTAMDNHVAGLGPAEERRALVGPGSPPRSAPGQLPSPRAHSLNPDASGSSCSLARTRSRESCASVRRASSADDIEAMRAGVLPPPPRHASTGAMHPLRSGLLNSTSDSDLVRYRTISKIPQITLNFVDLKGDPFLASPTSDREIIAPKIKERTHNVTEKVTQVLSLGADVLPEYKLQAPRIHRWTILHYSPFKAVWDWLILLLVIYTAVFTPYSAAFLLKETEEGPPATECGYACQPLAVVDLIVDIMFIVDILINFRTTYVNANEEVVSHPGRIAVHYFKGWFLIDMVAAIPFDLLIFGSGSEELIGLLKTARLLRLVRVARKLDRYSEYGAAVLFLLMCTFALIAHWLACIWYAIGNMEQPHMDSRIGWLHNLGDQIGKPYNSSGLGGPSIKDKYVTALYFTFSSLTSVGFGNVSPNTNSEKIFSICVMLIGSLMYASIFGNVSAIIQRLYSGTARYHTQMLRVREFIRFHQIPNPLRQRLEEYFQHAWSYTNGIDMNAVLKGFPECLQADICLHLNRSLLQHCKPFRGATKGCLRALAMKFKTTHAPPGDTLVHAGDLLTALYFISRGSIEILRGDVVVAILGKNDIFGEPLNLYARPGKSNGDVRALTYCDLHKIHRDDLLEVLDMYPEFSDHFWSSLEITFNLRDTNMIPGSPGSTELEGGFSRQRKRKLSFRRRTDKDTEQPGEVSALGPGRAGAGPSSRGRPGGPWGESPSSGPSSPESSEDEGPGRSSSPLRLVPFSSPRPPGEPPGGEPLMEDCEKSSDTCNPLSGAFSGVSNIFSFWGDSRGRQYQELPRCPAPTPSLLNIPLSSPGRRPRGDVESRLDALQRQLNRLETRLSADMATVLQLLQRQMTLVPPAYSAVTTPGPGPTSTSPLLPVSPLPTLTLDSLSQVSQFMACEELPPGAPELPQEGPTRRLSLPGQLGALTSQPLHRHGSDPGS

H1 = H1 (Homo sapiens (Human), UniProt P35367); assay: Radioligand binding affinity, H1
Chain of H1 (P35367 whole entry): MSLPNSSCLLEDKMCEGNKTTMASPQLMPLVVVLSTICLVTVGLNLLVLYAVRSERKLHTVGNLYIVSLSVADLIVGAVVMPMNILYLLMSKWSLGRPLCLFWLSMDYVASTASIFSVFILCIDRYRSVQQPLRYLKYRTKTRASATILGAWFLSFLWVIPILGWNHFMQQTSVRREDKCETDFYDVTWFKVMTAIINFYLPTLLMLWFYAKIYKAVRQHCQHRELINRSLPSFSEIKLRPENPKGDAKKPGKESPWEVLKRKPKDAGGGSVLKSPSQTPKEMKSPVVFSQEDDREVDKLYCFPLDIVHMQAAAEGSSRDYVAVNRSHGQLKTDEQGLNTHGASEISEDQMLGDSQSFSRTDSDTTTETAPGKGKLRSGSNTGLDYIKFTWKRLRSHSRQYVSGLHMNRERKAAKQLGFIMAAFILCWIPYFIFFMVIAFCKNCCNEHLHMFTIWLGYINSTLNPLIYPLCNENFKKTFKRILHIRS

5HT4 = 5HT4 (Homo sapiens (Human), UniProt Q13639); assay: Radioligand binding affinity, 5HT4
Chain of 5HT4 (Q13639 whole entry, species assumed): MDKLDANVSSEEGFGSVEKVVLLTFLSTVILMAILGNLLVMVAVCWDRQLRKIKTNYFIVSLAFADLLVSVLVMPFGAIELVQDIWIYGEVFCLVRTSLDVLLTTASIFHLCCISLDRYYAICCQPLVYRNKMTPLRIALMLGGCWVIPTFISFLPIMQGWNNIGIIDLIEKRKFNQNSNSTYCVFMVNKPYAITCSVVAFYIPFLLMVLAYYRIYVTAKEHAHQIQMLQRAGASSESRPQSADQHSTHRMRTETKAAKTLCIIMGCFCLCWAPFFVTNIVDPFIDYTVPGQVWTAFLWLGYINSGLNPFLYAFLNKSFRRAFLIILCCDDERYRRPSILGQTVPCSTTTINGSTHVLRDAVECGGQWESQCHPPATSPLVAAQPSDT

[2] = Therapeutic plasma concentrations
α1 = assay: Radioligand binding affinity, α1
gastric emptying in rats [3] = assay: Solid gastric emptying in rats; type: in vivo, rat (Sprague-Dawley); conditions: preliminary
[4] = tested on: gastric motility in canines; assay: Antral manometry (gastric motility) in canines; type: in vivo, canine; conditions: for motor dysfunction: canines
Procedure: Animals were fed an ad libitum chow diet (LabDiet®). After an overnight fast, the dogs were anesthetized with Pentothal (sodium thiopental, 11 mg/kg IV; Abbott Laboratories, North Chicago, Ill.) and maintained on 2-4% isoflurane (Abbott Laboratories) in oxygen (1 L/min) carrier gases delivered from a ventilator after endotracheal intubation. A cannula was placed in the jejunum 20 cm distal to the pylorus for the assessment of antral motility. Dogs were allowed to recover in their individual cages for 2 weeks. All experiments were performed after the dogs were completed recovered from the surgical procedure. The study was performed according to the National Institutes of Health Guidelines on the use of laboratory animals and approved by the Animal Care and Use Committee of the University of Texas Medical Branch at Galveston, Tex. To investigate the effect of the drugs on antral manometry, the study of each drug dose was done on three randomized sessions on separate days following the consumption of one can of solid dog food: 1) a Control session: In which animals received the vehicle only; 2) Dose I session: in which the lower dose of the drug was used; and 3) Dose II session: in which the higher dose of the drug was used (please refer to table for drug doses). Drug administration was performed according to Table 4, below. [table] Antral manometry was performed as follows. Following an overnight fast, an intraluminal water-perfused manometry catheter was inserted into the antrum through the jejunal cannula. Antral manometry recording was initiated after the consumption of one can of solid food and continued for 3 hours. The catheter contained 3 manometric sensors at a 1 cm interval. Dogs were given 10 minutes of accommodation, prior to the start of the recording. For data analysis, motility index (MI), defined as the integrated area (area under curve—AUC) between baseline and contractions per hour, was calculated. For statistical analysis, the Student's t-test was used for assessment of individual differences between groups (High dose, low dose of each drug) compared to control—Microsoft® Excel 2002). All values are expressed as mean±SEM. Significance was considered when p value was ≦0.05.

gastric emptying in rats [5] = assay: Solid gastric emptying in rats; type: in vivo, rat (Sprague-Dawley)
Procedure: Animals: […] The animals received a standard laboratory rat chow and tap water ad libitum. The rats were around 400 g at 14 weeks age when used in gastric emptying study. Drugs: S-Carbidopa was purchased from Sigma (#: C1335). Stock solution of S-Carbidopa was prepared at 5 mg/ml using DMSO as solvent. 80 μl stock solution was further diluted into 1 ml distilled water to make 0.4 mg/ml. The effect of S-Carbidopa (1 mg/kg) on solid gastric emptying was studied. Procedures: Male SD rats were involved in this study. Rats were fasted in cages with metal wired mesh for 24 hours with free access to water; S-carbidopa (1 mg/kg) was administered to the rats by oral gavage. Control rats were not administered S-carbidopa. 15 minutes following administration, rats were given access to 2 g of rat chow pellets for ten minutes. All rats completely ingested the chow within the 10 minute time frame. Rats were sacrificed by sodium pentobarbital (100 mg/kg) overdose 90 min after feeding. The stomach was surgically isolated and removed. Gastric contents were recovered from the stomach, air dried for 48 hours and then weighed. Solid gastric emptying was calculated according to the following formula: Gastric emptying (%)=[1−(dried gastric content in g)/2 g]×100. All values are expressed as mean±SEM.

Chain of D3 (P35462 whole entry): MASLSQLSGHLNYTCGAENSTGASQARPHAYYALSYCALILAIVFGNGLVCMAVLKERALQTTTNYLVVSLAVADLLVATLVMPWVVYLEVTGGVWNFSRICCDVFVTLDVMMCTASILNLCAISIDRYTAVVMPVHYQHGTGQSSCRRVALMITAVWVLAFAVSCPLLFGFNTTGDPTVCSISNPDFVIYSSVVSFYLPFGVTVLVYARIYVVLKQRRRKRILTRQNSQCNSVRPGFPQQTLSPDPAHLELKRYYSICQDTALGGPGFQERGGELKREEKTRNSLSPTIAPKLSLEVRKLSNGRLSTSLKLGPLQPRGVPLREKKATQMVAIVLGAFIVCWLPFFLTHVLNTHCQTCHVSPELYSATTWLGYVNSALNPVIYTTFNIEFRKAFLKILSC

Compound | Ki (D3) | Ki (dopamine D2 receptor) | QTc intervals as compared to vehicle-administered animals [1] | Radioligand Binding Affinity (Ki, nM) 5HT3 (5HT3) | Ki (5HT2) | inhibition at 0.1 µM (hERG channel) | inhibition at 1 µM (hERG channel) | inhibition at 10 µM (hERG channel) | pIC50 (hERG channel) | Radioligand Binding Affinity (Ki, nM) 5HT4 (5HT4) | Ki (α1) | motor dysfunction [4] | other results
CCN(CC)CCNC(=O)c1cc(Cl)c(N)cc1OC [Metoclopramide] | 16 nM | 64 nM | – | – | – | – | – | – | – | – | – | – | –
CS(=O)(=O)c1ccc2c(c1)N(CCCN1CCC(C(=O)O)CC1)c1ccccc1S2 [Metopimazine acid] | > 100 nM | – | no significant increases | Inactive | 370 nM | 0.2% | 4% | 11% | < 5.00 | Inactive | 210 nM | – | Ki (H1): 140 nM; Therapeutic plasma concentrations [2]: 300 to 900 nM
CS(=O)(=O)c1ccc2c(c1)N(CCCN1CCC(C(N)=O)CC1)c1ccccc1S2 [Metopimazine, 1-[3-[2-(methylsulfonyl)-10H-phenothiazin-10-yl]propyl]-piperidine-4-carboxamide] | 0.61 nM | 0.07 nM | no significant increases | Inactive | 15 nM | 4.5% | 32% | 82% | ~5.52 | Inactive | 1.9 nM | no motor dysfunction was observered | increase in gastric emptying as compared to vehicle control (gastric emptying in rats [3]; 3 mg/kg): about 40%; increase in gastric emptying as compared to vehicle control (gastric emptying in rats [3]; 10 mg/kg): about 18%; increase in gastric emptying as compared to vehicle control (gastric emptying in rats [3]; pooling the 3 mg/kg and 10 mg/kg doses): about 20%
C[C@@](Cc1ccc(O)c(O)c1)(NN)C(=O)O [S-Carbidopa, (2S)-3-(3,4-dihydroxyphenyl)-2-hydrazino-2-methylpropanoic acid] | – | – | no significant increases | – | – | – | – | – | – | – | – | no motor dysfunction was observered | Gastric emptying (%), mean of the 3 rats (gastric emptying in rats [5]; 1 mg/kg oral gavage, 90 min after feeding): 68.2%; solid gastric emptying compared to control rats (gastric emptying in rats [5]; 1 mg/kg, rats, initial results): improves solid gastric emptying; Gastric emptying (%) (gastric emptying in rats [5]; individual rat, 1 mg/kg oral gavage, 90 min after feeding): 55% and 62% and 87.5%; stomach content (gastric emptying in rats [5]; individual rat, 1 mg/kg oral gavage, dried gastric content (g) 90 min after 2 g chow): 0.9 and 0.76 and 0.25; motor dysfunction (gastric emptying in rats [5]; rats): no motor dysfunction was observed; motility index (MI), antral manometry ([4]; 1 mg/kg IV, 15 min prior to meal, vs control, p=0.05): robustly increased MI in all three of the channels tested
CN(CCOc1ccc(NS(C)(=O)=O)cc1)CCc1ccc(NS(C)(=O)=O)cc1 [dofetilide] | – | – | – | – | – | – | – | – | – | – | – | – | incidence of premature ventricular contractions, T-wave abnormalities, and right bundle branch block ([1]; 0.3 mg/kg oral gavage): increases; QTc intervals ([1]; 0.3 mg/kg oral gavage, post-dose period of 1-6 hours): increased
Cl.NCCc1ccc(O)c(O)c1 [dopamine hydrochloride, Dopamine hydrochloride] | – | – | – | – | – | – | – | – | – | – | – | – | motility index (MI), antral manometry ([4]; 50 mg/canine IV, immediately before meal, p=0.06): decreased MI in all channels
